Assay results taken from US8901118B2, “Compounds and methods for kinase modulation, and indications therefor” (Plexxikon Inc., priority 2010, dated 2014).

Tests used:
[1] = molecular target: CYP3A4(BQ) (Homo sapiens, UniProt P08684); test: CYP3A4(BQ) inhibition; type: in vitro ADME; details: CYP3A4, substrate BQ; read-out: Cyp IC50 3A4(BQ)
Outline: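 Inhibition of human CYP3A4 (BQ substrate) was measured by fluorescence, since blocking metabolism of a known substrate lowers the fluorescent product signal. Compounds dissolved in DMSO at 100 mM were diluted into acetonitrile and then into NADPH regeneration cofactor mix, serially diluted 1:1 across 10 points, and preincubated in 384 well plates for 10 minutes at 37° C.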

[2] = test system: Osteoclast precursor cells; test: Osteoclast differentiation assay (acid phosphatase readout); type: cell-based
Description: Further, an osteoclast differentiation assay is used to assess the efficacy of Fms inhibitors for treating bone disease such as osteoarthritis. On day 0, Osteoclast Medium BulletKit (Lonza catalog #PT-8001, containing Media, FBS, L-Glutamine, PenStrep, RANKL, and M-CSF) media is thawed and the FBS, L-glutamine and PenStrep from the kit is added to 100 mL of Osteoclast Precursor Basal medium to provide the Osteoclast Precursor Growth Medium (OPGM). This is warmed to 37° C. Osteoclast precursor cells (Lonza catalog #2T-110) frozen in cryovial are warmed to 37° C. and transferred to a 50 mL conical tube. The cryovial is rinsed with OPGM and added dropwise to the conical tube of cells with swirling, then the volume is adjusted to 20-30 mL with addition of OPGM. The cells are centrifuged at 200×g for 15 minutes at room temperature and all but approximately 3 mL of supernatant is removed to a new conical tube. The cells are suspended in the remaining supernatant and the volume is adjusted to 10-15 mL with OPGM added dropwise with swirling. The cells are centrifuged at 200×g for 15 minutes at room temperature and all but approximately 1 mL of supernatant is removed. The cells are resuspended in the remaining supernatant, counted, and the volume adjusted with an appropriate amount of OPGM to provide approximately 1×10^5 cells/mL. A 0.1 mL aliquot of cells is added to each well of a 96-well plate. Compound to be tested is prepared in DMSO for plating at a high concentration of 2.5 mM, with 8 point 1:3 serial dilutions. A 1 μL aliquot of each compound dilution is added to a 96 well v-bottom polypropylene plate and 0.124 mL of OPGM is added to the compound. Then 50 μL at of the compound in OPGM is added to the osteoclast precursor cells in 96-well plate (providing highest test concentration of 5 μM). RANKL (2 μg) from the BulletKit is reconstituted in 1 mL of OPGM, then vortexed and centrifuged briefly. A 792 μL at aliquot of RANKL is added to 6 mL of OPGM and 50 μL at is added to low control wells. Then 76.6 μL M-CSF (10 μg/mL) from the BulletKit is added to the remaining 5.8 mL of OPGM/RANKL solution (4×RANKL/M-CSF/OPGM). A 50 μL at aliquot of this is added to the remaining wells, and the remainder is stored at 4° C. for later use. The plate is incubated at 37° C. for 6 days, then the remaining OPGM/RANKL/M-CSF solution is warmed to 37° C. The remaining approximately 198 μL is combined with 6 mL of OPGM. The media is aspirated from the osteoclast wells and 100 μL of RANKL/OPGM is added to the low controls. The remaining RANKL/OPGM is combined with the approximately 18.5 μL of remaining M-CSF. The remaining 4×RANKL/M-CSF/OPGM from day 0 is diluted to 1× and combined with the freshly prepared solution. A 0.1 mL aliquot of this is added to each osteoclast well and incubated for 37° C. for 1 day. The Acid Phosphatase kit (Cayman Chemical catalog #10008051) is warmed to room temperature. The assay buffer is diluted 5 mL with 45 mL of water. For each plate, two substrate tablets are dissolved in 4.5 mL of the assay buffer, mixing by vortex to break up the tablet. Stop solution is diluted 12 mL with 36 mL of water. In a tissue culture hood, 20 μL of each osteoclast well supernatant is transferred to a 96 well plate. A 30 μL aliquot of the substrate solution is added to each well and incubated at 37° C. for 20 minutes, then added 100 μL stop solution to each well. The absorbance of each well is read at 405 nm on Safire plate reader. The absorbance reading is plotted vs. concentration to provide the IC50 for each compound.

Sequence of CYP3A4(BQ) (P08684 whole entry): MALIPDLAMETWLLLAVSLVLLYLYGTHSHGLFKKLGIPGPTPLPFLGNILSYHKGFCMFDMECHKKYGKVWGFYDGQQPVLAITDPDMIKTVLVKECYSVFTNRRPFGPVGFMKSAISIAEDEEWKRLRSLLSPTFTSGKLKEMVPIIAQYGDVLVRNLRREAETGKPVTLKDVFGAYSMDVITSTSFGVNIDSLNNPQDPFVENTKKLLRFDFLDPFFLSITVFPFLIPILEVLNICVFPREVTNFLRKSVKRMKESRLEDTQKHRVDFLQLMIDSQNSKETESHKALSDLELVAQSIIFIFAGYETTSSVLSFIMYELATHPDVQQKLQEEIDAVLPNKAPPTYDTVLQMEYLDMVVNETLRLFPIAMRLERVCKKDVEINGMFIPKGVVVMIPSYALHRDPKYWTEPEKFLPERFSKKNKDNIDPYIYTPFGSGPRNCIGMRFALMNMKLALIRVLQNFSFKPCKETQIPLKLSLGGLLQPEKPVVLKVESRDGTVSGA

SMILES | IC50 [1] [µM] | IC50 [2] [µM]
CCOc1ccc(Nc2ccc(Cc3c[nH]c4ncnc(C)c34)c(F)n2)cn1 [Compound P-4006, (6-Ethoxy-pyridin-3-yl)-[6-fluoro-5-(4-methyl-7H-pyrrolo[2,3-d]pyrimidin-5-ylmethyl)-pyridin-2-yl]-amine] | > 10 | < 0.1
CCc1ccc(Nc2ccc(Cc3c[nH]c4ncnc(OC)c34)c(F)n2)cn1 [Compound P-4007, (6-Ethyl-pyridin-3-yl)-[6-fluoro-5-(4-methoxy-7H-pyrrolo[2,3-d]pyrimidin-5-ylmethyl)-pyridin-2-yl]-amine] | > 10 | < 0.1
CCOc1ccc(Nc2ccc(Cc3c[nH]c4ncnc(OCCOC)c34)c(F)n2)cn1 [Compound P-4008, (6-Ethoxy-pyridin-3-yl)-{6-fluoro-5-[4-(2-methoxy-ethoxy)-7H-pyrrolo[2,3-d]pyrimidin-5-ylmethyl]-pyridin-2-yl}-amine] | > 10 | < 0.1
CCc1ccc(Nc2ccc(Cc3c[nH]c4ncnc(C)c34)c(F)n2)cn1 [Compound P-4009, (6-Ethyl-pyridin-3-yl)-[6-fluoro-5-(4-methyl-7H-pyrrolo[2,3-d]pyrimidin-5-ylmethyl)-pyridin-2-yl]-amine] | > 10 | < 0.1
COc1ncnc2[nH]cc(Cc3ccc(Nc4ccc(C)nc4)nc3F)c12 [Compound P-4010, [6-Fluoro-5-(4-methoxy-7H-pyrrolo[2,3-d]pyrimidin-5-ylmethyl)-pyridin-2-yl]-(6-methyl-pyridin-3-yl)-amine] | > 10 | < 0.1
CCn1cc(Nc2ccc(Cc3c[nH]c4ncnc(OC)c34)c(F)n2)cn1 [Compound P-4011, (1-Ethyl-1H-pyrazol-4-yl)-[6-fluoro-5-(4-methoxy-7H-pyrrolo[2,3-d]pyrimidin-5-ylmethyl)-pyridin-2-yl]-amine] | > 10 | < 0.1
CCOc1ncnc2[nH]cc(Cc3ccc(Nc4cnn(CC)c4)nc3F)c12 [Compound P-4012, [5-(4-Ethoxy-7H-pyrrolo[2,3-d]pyrimidin-5-ylmethyl)-6-fluoro-pyridin-2-yl]-(1-ethyl-1H-pyrazol-4-yl)-amine] | > 10 | < 0.1
CCn1cc(Nc2ccc(Cc3c[nH]c4ncnc(C)c34)c(F)n2)cn1 [Compound P-4013, (1-Ethyl-1H-pyrazol-4-yl)-[6-fluoro-5-(4-methyl-7H-pyrrolo[2,3-d]pyrimidin-5-ylmethyl)-pyridin-2-yl]-amine] | > 10 | < 0.1
CCn1cc(Nc2ccc(Cc3c[nH]c4ncnc(OCCOC)c34)c(F)n2)cn1 [Compound P-4014, (1-Ethyl-1H-pyrazol-4-yl)-{6-fluoro-5-[4-(2-methoxy-ethoxy)-7H-pyrrolo[2,3-d]pyrimidin-5-ylmethyl]-pyridin-2-yl}-amine] | > 10 | < 0.1
COCCOc1ncnc2[nH]cc(Cc3ccc(Nc4ccc(C)nc4)nc3F)c12 [Compound P-4015, {6-Fluoro-5-[4-(2-methoxy-ethoxy)-7H-pyrrolo[2,3-d]pyrimidin-5-ylmethyl]-pyridin-2-yl}-(6-methyl-pyridin-3-yl)-amine] | > 10 | < 0.1
CCc1ccc(Nc2ccc(Cc3c[nH]c4ncnc(OCCOC)c34)c(F)n2)cn1 [Compound P-4016, (6-Ethyl-pyridin-3-yl)-{6-fluoro-5-[4-(2-methoxy-ethoxy)-7H-pyrrolo[2,3-d]pyrimidin-5-ylmethyl]-pyridin-2-yl}-amine] | > 10 | < 0.1
COc1ccc(Nc2ccc(Cc3c[nH]c4ncnc(C5CC5)c34)c(F)n2)cn1 [Compound P-4023, [5-(4-cyclopropyl-7H-pyrrolo[2,3-d]pyrimidin-5-ylmethyl)-6-fluoro-pyridin-2-yl]-(6-methoxy-pyridin-3-yl)-amine] | > 10 | < 0.1
